One data set is described as follows: physchem. The note with it: buffer, pH 6.
The species entered for the next data set is Oryctolagus cuniculus. The data set is described as follows: tissue or blood. The note with it: Aorta.
The target in the next data set is Carbonic anhydrase 4 (Homo sapiens, UniProt P22748). The experiment in a line: Inhibition of human carbonic anhydrase 4 up to 100 uM by CO2 hydrase stopped flow assay.
The target in a further data set is Carbonic anhydrase 2 (Homo sapiens, UniProt P00918). The experiment in a line: Inhibition of human carbonic anhydrase 2 up to 100 uM by CO2 hydrase stopped flow assay.
For another data set, the target named is Carbonic anhydrase 1 (Homo sapiens, UniProt P00915). The experiment in a line: Inhibition of human carbonic anhydrase 1 up to 100 uM by CO2 hydrase stopped flow assay.
Sequence of Carbonic anhydrase 1 (P00915 whole entry): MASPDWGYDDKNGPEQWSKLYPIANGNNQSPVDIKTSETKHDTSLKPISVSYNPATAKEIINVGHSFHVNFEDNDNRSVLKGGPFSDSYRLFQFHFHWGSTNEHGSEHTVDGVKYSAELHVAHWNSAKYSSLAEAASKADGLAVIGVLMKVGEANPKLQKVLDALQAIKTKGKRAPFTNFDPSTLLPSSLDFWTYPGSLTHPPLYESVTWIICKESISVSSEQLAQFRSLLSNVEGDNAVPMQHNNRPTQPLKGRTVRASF

SMILES strings stand for the structures. Values after ≈ are worked out from the molar mass of the structure shown.

Sequence of Carbonic anhydrase 4 (P22748 whole entry): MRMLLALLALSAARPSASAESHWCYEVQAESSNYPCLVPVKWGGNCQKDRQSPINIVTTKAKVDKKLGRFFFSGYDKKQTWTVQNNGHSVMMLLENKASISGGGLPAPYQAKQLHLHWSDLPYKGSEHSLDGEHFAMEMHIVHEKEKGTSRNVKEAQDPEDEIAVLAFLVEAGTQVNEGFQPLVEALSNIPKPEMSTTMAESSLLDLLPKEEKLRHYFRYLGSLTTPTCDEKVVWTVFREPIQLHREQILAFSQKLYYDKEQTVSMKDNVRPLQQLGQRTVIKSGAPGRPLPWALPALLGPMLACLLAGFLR
Description for Oryctolagus cuniculus: Vasorelaxant activity against methoxiamin-induced contraction in rabbit aortic ring

In “physchem”, `CCN(C(=O)CCCCCO[N+](=O)[O-])[C@H]1C[C@H](C)S(=O)(=O)c2sc(S(N)(=O)=O)cc21` gave a solubility of 0.25 mg/mL (≈ 0.517 mM). In the data set listed under Oryctolagus cuniculus, the EC50 was found to be 4.25 µM.
`CCN(C(=O)OCC(CO[N+](=O)[O-])O[N+](=O)[O-])[C@H]1C[C@H](C)S(=O)(=O)c2sc(S(N)(=O)=O)cc21` (stereo not given in full) had an EC50 in the data set listed under Oryctolagus cuniculus of 0.37 µM.
In “physchem”, `CCN(C(=O)OCCCO[N+](=O)[O-])[C@H]1C[C@H](C)S(=O)(=O)c2sc(S(N)(=O)=O)cc21` showed a solubility of 15.1 mg/mL (≈ 32 mM). In the data set listed under Oryctolagus cuniculus, this compound came in with an EC50 of 2.05 µM.
Consider `O=[N+]([O-])O[C@@H]1CO[C@H]2[C@@H]1OC[C@@H]2O` [ISOSORBIDE MONONITRATE], for which the solubility in “physchem” was under 20 mg/mL. Further, the Ki result at Carbonic anhydrase 4, on Carbonic anhydrase 2 and on Carbonic anhydrase 1 was “Not Active” each time. The compound further showed an EC50 in the data set listed under Oryctolagus cuniculus of 10.8 µM.

The solubility is the dissolved amount per volume that the medium holds. A higher solubility goes with much dissolved substance. The EC50 is the concentration that produces a half-maximal response.

Source of the values: ChEMBL document CHEMBL1156128, “Nitric oxide-donating carbonic anhydrase inhibitors for the treatment of open-angle glaucoma” (Bioorg Med Chem Lett, 2009).
